This experiment has as its system Bcl2 and c-myc gene expression. The experiment is described as follows: Evaluation of target engagement: Bcl2 and c-myc gene expression in MV4-11 and MM1.s xenograft tumors. The class given is in vivo, mouse. Conditions: oral dose, tumors harvested 3, 6, 12, 24 hrs post dose for Bcl2 and c-myc gene expression as PD biomarkers. The protocol:
MV4-11 and MM1.s cells (ATCC) are grown under standard cell culture conditions and (NCr) nu/nu fisol strain of female mice age 6-7 weeks are injected with 5×10^6 cells/animal in 100 μL PBS+100 μL Matrigel in the lower left abdominal flank. By approximately day 28 after MV4-11 and MM1.s cells injection, mice are randomized based on tumor volume (L×W×H)/2) of average ˜500 mm^3. Mice are dosed orally with compound in EA006 formulation at 10 mL/kg body weight dose volume and tumors harvested 3, 6, 12, 24 hrs post dose for Bcl2 and c-myc gene expression analysis as PD biomarkers.

As for `Cc1noc(C)c1-c1cc(-c2c(C)noc2C)c2nc[nH]c2c1` [Example Compound 1, 4,4′-(1H-benzo[d]imidazole-4,6-diyl)bis(3,5-dimethylisoxazole)], the In vivo activity entry is “Active”.
